Data on six compounds can be found in patent US6753456B2, “Point mutant mice with hypersensitive alpha 4 nicotinic receptors: dopaminergic pathology and increased anxiety” (California Institute of Technology, priority 2000, dated 2004).

The target of data set [1] is T1, mutated (α4 Leu9′Ser) rat α4β2 receptors (Rattus norvegicus, UniProt P09483+P12390, L285S).
T1 construct: expressed in transfected cells; host or cells: Xenopus oocytes (capped mRNA injected, α4L9′S/β2 1:1)
Briefly: Two-electrode voltage clamp, agonist concentration-response of mutated α4β2 receptors expressed in Xenopus oocytes. Format: cell-based. As to the method:
FIG. 1C, the agonist is choline.
Xenopus Oocyte Injections and Electrophysiology The α4 and β2 subunits were subcloned into pAMV-PA (Nowak, et al.(1998) Methods Enzymol. 293, 504-529). Capped mRNA transcripts were prepared, and α4/β2 (2 ng, 1:1) or α4L9′/β2 (0.2-0.5 ng, 1:1) were microinjected into Xenopus oocytes. Twenty-four to seventy-two hours later, two-electrode voltage clamp recordings were made in solutions containing zero […].
Chimeric males from the resulting two mouse lines, neo-intact and neo-deleted, were bred to C57BL/6 females to generate animals heterozygous for the mutation, and mice were tested for the mutation by sequencing of genomic DNA (FIG. 1F).

Data set [2] has as its system heterozygous L9′S α4 and wild type mice. As to the kind of experiment: Behavioral scoring of nicotine-induced seizure activity and Straub tail. Format: in vivo, mouse. From the text: To pharmacologically characterize the L9′S mutation effects on seizure induction in the α4 mice behavioral responses to pharmacologic stimulation were videotaped and scored.
The next data set deals with nAChRs. To be noted: Damaj, et al. (1999); cited from earlier work.
Data set [3] relates to WT and heterozygous (het) neo-intact mutants. Briefly: Ambulation (locomotion) of WT and heterozygous neo-intact mice after drug injection. The data set is classed as in vivo, mouse.
For the next data set, the system named is α4β2 receptors. To be noted: rats, Felix and Levin (1997); cited from earlier work.
Another data set concerns heterozygous and WT mice. To be noted: nicotine 0.1 mg/kg. The source says: Mouse electroencephalography can also be used to examine the susceptibility of transgenic mice to seizures. A surgical and electrophysiological rig that allows simultaneous video-electroencephalographic (EEG) recordings in free moving animals can be used. For EEG electrode implants, mice are anesthetized with a ketamine-xylazine mixture, 0.2 mm-diameter tungsten wire electrodes are positioned through drilled holes in the cranium in a twisted pair configuration and placed stereotactically within different regions of the brain. A three-pin microconnector (ground electrode plus two recording electrodes) is cemented to the skull surface. Following surgery, mice are allowed to recover for 48 hours.

Data set [4] concerns cells in acute midbrain slices from α4 mutant heterozygous and wild type animals. Briefly: Electrophysiology on acute midbrain slices. Format: cell-based, mouse. The conditions noted are these: heterozygous vs wild type.
Text: Electrophysiological studies on brain slices derived from transgenic α4 mice. Slices obtained from frontal cerebral cortex, hippocampus, and midbrain can be used for field and intracellular recordings. Field recordings serve to determine whether various compounds cause or block synchronized firing in these neuronal ensembles. Whole-cell patch recordings provide information regarding activation and/or desensitization of nAChRs in individual neurons when exposed to various agonists and antagonists, as well as the effects of these compounds on firing rates. Because interneurons express most of the α4 receptors, recordings from interneurons and IPSC's in pyramidal cells are useful for study.
For data set [5], the system named is neurons from transgenic L9′S and WT mice. To be noted: 10 μM nicotine. From the text:
The paradigms described above can be implemented in slices derived from other brain areas such as the cortex and the midbrain. Large inhibitory and excitatory potentials can be recorded from pyramidal cells in cortical slices (Hasselmo and Barkai (1995). J. Neurosci 15, 6592-604).

Entries after “also recorded” stand apart in the source; their conditions may differ. Counter-ions that a name gives are not always drawn.

T1 sequence (P09483 31-630 L285S): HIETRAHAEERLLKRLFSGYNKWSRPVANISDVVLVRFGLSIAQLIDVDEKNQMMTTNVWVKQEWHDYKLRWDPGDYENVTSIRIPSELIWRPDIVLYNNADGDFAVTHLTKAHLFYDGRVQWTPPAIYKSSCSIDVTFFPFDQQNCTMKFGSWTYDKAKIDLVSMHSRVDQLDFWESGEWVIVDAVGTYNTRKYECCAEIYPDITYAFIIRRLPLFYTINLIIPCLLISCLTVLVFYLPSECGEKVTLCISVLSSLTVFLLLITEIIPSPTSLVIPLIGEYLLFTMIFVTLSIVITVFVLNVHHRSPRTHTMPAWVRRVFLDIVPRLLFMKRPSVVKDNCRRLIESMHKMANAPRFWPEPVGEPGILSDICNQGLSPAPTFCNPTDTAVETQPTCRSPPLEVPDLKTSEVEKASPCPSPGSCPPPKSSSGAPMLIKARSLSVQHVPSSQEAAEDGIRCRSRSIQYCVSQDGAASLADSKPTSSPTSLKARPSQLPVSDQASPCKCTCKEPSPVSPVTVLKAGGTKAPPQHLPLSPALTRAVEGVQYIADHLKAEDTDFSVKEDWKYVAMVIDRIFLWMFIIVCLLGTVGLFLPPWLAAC
T1 sequence (P12390 25-500): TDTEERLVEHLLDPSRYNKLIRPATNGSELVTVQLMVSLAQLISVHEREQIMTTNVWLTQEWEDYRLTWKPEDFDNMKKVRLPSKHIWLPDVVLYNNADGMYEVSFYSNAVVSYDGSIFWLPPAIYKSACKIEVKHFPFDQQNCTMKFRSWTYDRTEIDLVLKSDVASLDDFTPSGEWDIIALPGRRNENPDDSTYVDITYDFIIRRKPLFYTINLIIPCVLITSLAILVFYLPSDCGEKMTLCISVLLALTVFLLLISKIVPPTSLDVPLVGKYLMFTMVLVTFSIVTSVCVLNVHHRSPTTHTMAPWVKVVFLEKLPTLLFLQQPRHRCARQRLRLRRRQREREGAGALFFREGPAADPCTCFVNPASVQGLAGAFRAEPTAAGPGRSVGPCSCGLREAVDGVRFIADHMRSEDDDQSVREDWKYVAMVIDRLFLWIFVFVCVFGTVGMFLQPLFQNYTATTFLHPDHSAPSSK

For `CCN(CC)CCCCCCCCOC(=O)c1cc(OC)c(OC)c(OC)c1.Cl` [8-(diethylamino)octyl 3,4,5-trimethoxyben-zoate hydrochloride], in data set [1] (500 nM, nine oocytes), the “effect on increased leakage currents in oocytes expressing α4L9′S/β2 receptor” value is listed as “blockable”.
Consider `CNC1(C)C2CCC(C2)C1(C)C` (stereo not shown) [mecamylamine], for which the “effect on nicotine effects (seizures, Straub tail)” value in data set [2] (mecamylamine 2 mg/kg, both hets and WT) was “partially blocked”. Further, the “block of nicotine-induced seizures” value in the data set with nAChRs is “effective nicotine-induced seizure blocker”.
Regarding `C[C@H](N)Cc1ccccc1` [amphetamine, d-amphetamine sulfate], the “locomotor response in young mice” value in data set [3] (5 mg/kg i.p., about 3-month-old WT and heterozygous mice) is given as “stimulated locomotion”. In addition, the “locomotor response of heterozygous mice at 11 months vs 3 months” value in data set [3] (5 mg/kg i.p., heterozygous, 11 months of age) was “declines significantly; also recorded: reduced amphetamine-induced locomotion”.
As for `C[N+](C)(C)CCO` [choline], in data set [1] (choline about 10 μM), the “activation of the mutated receptor, % of maximal values” is 20%.
Take `CO[C@H]1CC=C2CCN3CCC4=C(CC(=O)OC4)[C@]23C1` [DHβE, Dihydro-β-erythroidine]: the seizure induction entry in the data set with α4β2 receptors was “induce seizures”.
Consider `CN1CCCC1c1cccnc1` (stereo not shown) [nicotine], for which the “sensitivity of L9′S nAChRs expressed in frog oocytes to the ligand” value in data set [1] (summary statement) was “increased sensitivity”. For the same compound, the “shift of the dose-response relation to the left by the Leu-9′-Ser mutation (increase in agonist sensitivity)” value in data set [1] (α4β2 receptor tested in oocytes, mutant vs WT) is on record as “about 30 fold”. For the same compound, the “effect on locomotor activity of WT mice” value in data set [3] (nicotine 0.02 mg/kg i.p., WT mice) is listed as “no significant difference; also recorded: not affected”. The “effect on locomotor activity of heterozygous knock-in mice” value in data set [3] (nicotine 0.02 mg/kg i.p., heterozygous mice, 5-15 min after injection) is listed as “significant reduction of locomotor activity; also recorded: sharply reduces the level of activity”. Further, the “doses required for severe tonic-clonic seizures in WT animals” value in data set [2] (WT) is recorded as over 10 mg/kg. In data set [2] (summary statement), the “threshold to nicotine-induced seizures in L9′S knock-in mice” value is “reduced threshold”. In addition, the “EEG recordings of WT” value in the data set on heterozygous and WT mice (WT) was “unaffected”. In addition, in the data set with heterozygous and WT mice (heterozygous), the “EEG response of a heterozygous mouse” value is “Rapid-burst discharges” and the “amplitude of 6 Hz theta rhythm in a heterozygous mouse” value is recorded as “two-fold increased amplitude”. Besides, the “concentrations to which heterozygous cells respond relative to those activating receptors in wild type slices” value in data set [4] was “ten times lower”. In data set [5] (WT), the “response of WT-derived cells” value was “remained silent or required much larger concentrations to be activated”. Besides, in data set [5] (majority of neurons), the “response of neurons from transgenic mice” value is “responded with spontaneous bursts”.
